Source: PubChem BioAssay (NCI)
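All cell lines were grown in 96-well plates and treated with compound for 48 hours. TGI: concentration producing complete growth inhibition.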

Legend:
Experiment in all cases: inhibition of tumour cell growth, NCI panel, 48 h
NCI-H460 lung = system: NCI-H460 lung
HL-60(TB) leukemia = system: HL-60(TB) leukemia
BT-549 breast = system: BT-549 breast
UO-31 renal = system: UO-31 renal
OVCAR-5 ovarian = system: OVCAR-5 ovarian
OVCAR-3 ovarian = system: OVCAR-3 ovarian
MDA-MB-435 = system: MDA-MB-435
U251 CNS = system: U251 CNS
HOP-62 NSCLC = system: HOP-62 NSCLC
HCT-15 colon = system: HCT-15 colon
SK-MEL-28 melanoma = system: SK-MEL-28 melanoma
T-47D breast = system: T-47D breast
SK-MEL-5 melanoma = system: SK-MEL-5 melanoma
A549 NSCLC = system: A549 NSCLC
COLO 205 colon = system: COLO 205 colon
DU-145 prostate = system: DU-145 prostate
HCC-2998 colon = system: HCC-2998 colon
SNB-75 CNS = system: SNB-75 CNS
HOP-92 NSCLC = system: HOP-92 NSCLC
OVCAR-4 ovarian = system: OVCAR-4 ovarian
M14 melanoma = system: M14 melanoma
LOX IMVI melanoma = system: LOX IMVI melanoma
IGROV1 ovarian = system: IGROV1 ovarian
NCI-H23 lung = system: NCI-H23 lung
MDA-MB-231 breast = system: MDA-MB-231 breast
UACC-257 melanoma = system: UACC-257 melanoma
HT29 colon = system: HT29 colon
MALME-3M melanoma = system: MALME-3M melanoma
PC-3 prostate = system: PC-3 prostate
NCI-H226 lung = system: NCI-H226 lung
UACC-62 melanoma = system: UACC-62 melanoma
HS 578T breast = system: HS 578T breast
SK-OV-3 ovarian = system: SK-OV-3 ovarian
SW-620 colon = system: SW-620 colon
ACHN renal = system: ACHN renal
MDA-N = system: MDA-N
A498 renal = system: A498 renal
SF-539 CNS = system: SF-539 CNS
NCI-H522 lung = system: NCI-H522 lung
MCF7 breast = system: MCF7 breast
K-562 leukemia = system: K-562 leukemia
SN12C renal = system: SN12C renal
KM12 colon = system: KM12 colon
CCRF-CEM leukemia = system: CCRF-CEM leukemia
CAKI-1 renal = system: CAKI-1 renal
TK-10 renal = system: TK-10 renal
OVCAR-8 ovarian = system: OVCAR-8 ovarian
786-0 renal = system: 786-0 renal
RXF 393 renal = system: RXF 393 renal
RPMI-8226 leukemia = system: RPMI-8226 leukemia
MOLT-4 leukemia = system: MOLT-4 leukemia
HCT-116 colon = system: HCT-116 colon
SR leukemia = system: SR leukemia
SNB-19 CNS = system: SNB-19 CNS
EKVX NSCLC = system: EKVX NSCLC
NCI/ADR-RES ovarian = system: NCI/ADR-RES ovarian
SF-295 CNS = system: SF-295 CNS
SK-MEL-2 melanoma = system: SK-MEL-2 melanoma
SF-268 CNS = system: SF-268 CNS

Cc1cc(S(=O)(=O)Nc2nnc3c4ccccc4cnn23)c(S)cc1Cl
TGI (NCI-H460 lung): > 85.1 µM | TGI (HL-60(TB) leukemia): > 100 µM | TGI (BT-549 breast): > 92.3 µM | TGI (UO-31 renal): > 100 µM | TGI (OVCAR-5 ovarian): > 100 µM | TGI (OVCAR-3 ovarian): > 100 µM | TGI (MDA-MB-435): > 100 µM | TGI (U251 CNS): > 84.2 µM | TGI (HOP-62 NSCLC): > 100 µM | TGI (HCT-15 colon): > 100 µM | TGI (SK-MEL-28 melanoma): > 100 µM | TGI (T-47D breast): > 100 µM | TGI (SK-MEL-5 melanoma): > 100 µM | TGI (A549 NSCLC): > 100 µM | TGI (COLO 205 colon): > 100 µM | TGI (DU-145 prostate): > 100 µM | TGI (HCC-2998 colon): > 100 µM | TGI (SNB-75 CNS): > 100 µM | TGI (HOP-92 NSCLC): > 100 µM | TGI (OVCAR-4 ovarian): > 100 µM | TGI (M14 melanoma): > 100 µM | TGI (LOX IMVI melanoma): > 100 µM | TGI (IGROV1 ovarian): > 100 µM | TGI (NCI-H23 lung): > 100 µM | TGI (MDA-MB-231 breast): > 100 µM | TGI (UACC-257 melanoma): > 100 µM | TGI (HT29 colon): > 100 µM | TGI (MALME-3M melanoma): > 100 µM | TGI (PC-3 prostate): > 100 µM | TGI (NCI-H226 lung): > 69.3 µM | TGI (UACC-62 melanoma): > 100 µM | TGI (HS 578T breast): > 89 µM | TGI (SK-OV-3 ovarian): > 92.7 µM | TGI (SW-620 colon): > 100 µM | TGI (ACHN renal): > 100 µM | TGI (MDA-N): > 100 µM | TGI (A498 renal): > 100 µM | TGI (SF-539 CNS): > 95 µM | TGI (NCI-H522 lung): > 100 µM | TGI (MCF7 breast): > 100 µM | TGI (K-562 leukemia): > 100 µM | TGI (SN12C renal): > 100 µM | TGI (KM12 colon): > 100 µM | TGI (CCRF-CEM leukemia): > 100 µM | TGI (CAKI-1 renal): > 100 µM | TGI (TK-10 renal): > 100 µM | TGI (OVCAR-8 ovarian): > 100 µM | TGI (786-0 renal): > 100 µM | TGI (RXF 393 renal): > 100 µM | TGI (RPMI-8226 leukemia): > 100 µM | TGI (MOLT-4 leukemia): > 100 µM | TGI (HCT-116 colon): > 100 µM | TGI (SR leukemia): > 100 µM | TGI (SNB-19 CNS): > 88.9 µM | TGI (EKVX NSCLC): > 100 µM | TGI (NCI/ADR-RES ovarian): > 100 µM | TGI (SF-295 CNS): > 100 µM | TGI (SK-MEL-2 melanoma): > 100 µM | TGI (SF-268 CNS): > 100 µM

CNCCCNC(=S)Cn1cc(C)c(=O)[nH]c1=O
TGI (NCI-H460 lung): > 67.3 µM | TGI (HL-60(TB) leukemia): > 54 µM | TGI (BT-549 breast): > 100 µM | TGI (UO-31 renal): > 86.7 µM | TGI (OVCAR-5 ovarian): > 100 µM | TGI (OVCAR-3 ovarian): > 100 µM | TGI (MDA-MB-435): > 31.6 µM | TGI (U251 CNS): > 100 µM | TGI (HOP-62 NSCLC): > 100 µM | TGI (HCT-15 colon): > 100 µM | TGI (SK-MEL-28 melanoma): > 75.4 µM | TGI (T-47D breast): > 100 µM | TGI (SK-MEL-5 melanoma): > 31.4 µM | TGI (A549 NSCLC): > 51.3 µM | TGI (COLO 205 colon): > 69.9 µM | TGI (DU-145 prostate): > 80.6 µM | TGI (HCC-2998 colon): > 69 µM | TGI (SNB-75 CNS): > 100 µM | TGI (HOP-92 NSCLC): > 100 µM | TGI (OVCAR-4 ovarian): > 100 µM | TGI (M14 melanoma): > 69.6 µM | TGI (LOX IMVI melanoma): > 100 µM | TGI (IGROV1 ovarian): > 96.1 µM | TGI (NCI-H23 lung): > 81.8 µM | TGI (MDA-MB-231 breast): > 100 µM | TGI (UACC-257 melanoma): > 59.4 µM | TGI (HT29 colon): > 100 µM | TGI (MALME-3M melanoma): > 100 µM | TGI (PC-3 prostate): > 100 µM | TGI (NCI-H226 lung): > 100 µM | TGI (UACC-62 melanoma): > 63.5 µM | TGI (HS 578T breast): > 75.5 µM | TGI (SK-OV-3 ovarian): > 85.7 µM | TGI (SW-620 colon): > 100 µM | TGI (ACHN renal): > 74.3 µM | TGI (MDA-N): > 100 µM | TGI (A498 renal): > 74.8 µM | TGI (SF-539 CNS): > 60.9 µM | TGI (NCI-H522 lung): > 100 µM | TGI (MCF7 breast): > 92.5 µM | TGI (K-562 leukemia): > 100 µM | TGI (SN12C renal): > 100 µM | TGI (KM12 colon): > 78.8 µM | TGI (CCRF-CEM leukemia): > 50 µM | TGI (CAKI-1 renal): 39.4 µM | TGI (TK-10 renal): > 100 µM | TGI (OVCAR-8 ovarian): > 100 µM | TGI (786-0 renal): > 100 µM | TGI (RXF 393 renal): > 95.5 µM | TGI (RPMI-8226 leukemia): > 100 µM | TGI (MOLT-4 leukemia): > 71.7 µM | TGI (HCT-116 colon): > 68 µM | TGI (SR leukemia): > 100 µM | TGI (SNB-19 CNS): > 100 µM | TGI (EKVX NSCLC): > 100 µM | TGI (NCI/ADR-RES ovarian): > 100 µM | TGI (SF-295 CNS): > 54.3 µM | TGI (SK-MEL-2 melanoma): > 74.4 µM | TGI (SF-268 CNS): > 100 µM
